Laboratory results: US20080113041A1, “CALCIUM SUPPLEMENTATION TO REDUCE PROSTATE CANCER RISK” (Trustees of Dartmouth College, priority 2001, published 2008)
Where two headings read alike, the source gives them in different places.

Key:
prostate cancer [1] = conditions: for men diagnosed with prostate cancer: 345 men randomized to calcium; for adjusted odds ratio for prostate cancer: calcium vs placebo, 1200 mg elemental calcium (as carbonate); for toxicity: four years of treatment, 3000 mg calcium carbonate
Protocol: To investigate this issue in a randomized study, we investigated the association between prostate cancer risk and treatment assignment in a large, double blind chemoprevention trial of calcium carbonate supplementation for the prevention of large bowel adenomas. Treatment was for four years in two randomized groups: placebo or 1200 mg elemental calcium (as carbonate).
The Calcium Polyp Prevention Study from which the data for this study were obtained involved six clinical centers: the Cleveland Clinic Foundation, Dartmouth-Hitchcock Medical Center, the University of Southern California/Southern California Permanente Medical Group, the University of Iowa, University of Minnesota, and the University of North Carolina Dartmouth was the coordinating center. Human subjects committees at each center approved the study protocol; an independent safety and data monitoring committee reviewed the study semi-annually.
Eligible patients were less than eighty years old, in good health, and without a history of familial polyposis, invasive large bowel cancer, malabsorption syndromes, or any condition which might be worsened by supplemental calcium. We aimed to randomize 860 subjects to have 80% power to detect a 25% reduction in […].
We reviewed data from 2,918 apparently eligible patients. […] We assigned these subjects to calcium or placebo using computer-generated random numbers, blocking by study center. […] Study tablets contained 3000 mg of calcium carbonate (1200 mg of elemental calcium); or, an identical-appearing cellulose/sucrose placebo. The trial was double-blind; neither subjects nor study staff were told the subjects' treatment assignments.
At enrollment and at the time of each of two follow-up colonoscopies, we obtained venous blood specimens in mineral-free tubes. Serum was initially stored at −20° C. or lower, pending shipment to Dartmouth for storage at −70° C. until analysis. At enrollment and the end of the study, we also assessed subjects' diet with a validated food frequency questionnaire (Block et al., Am. J. Epidemiol., 124:453-69, 1986). Every six months, we sent patients questionnaires regarding adherence to study agents; use of medications, over-the-counter drugs and nutritional supplements; and the occurrence of symptoms, illnesses, and hospitalizations. Recruitment into the study began in November 1988 and ended in April 1992. Follow-up ended in December 1996.
To summarize the association between prostate cancer and treatment assignment, we used Kaplan-Meier survival curves as well as odds ratios (OR's) and 95% CI's, computed using logistic regression with adjustment for age, clinical center, and baseline dietary calcium. OR's were calculated for the period from randomization to end of treatment and, to accommodate possible delays in cancer detection and/or latent treatment effects, for the period from randomization to end of treatment plus 12 months (i.e., five years).

colorectal adenomas = conditions: cited from earlier work
prostate cancer [2] = conditions: adjuvant arm after prostatic and pelvic radiation therapy; T3, N0, or any T, N1, M0 disease; 71% on observation arm, p=0.52; cited from earlier work
[3] = 913 subjects with at least one study examination, calcium carbonate 3 gm daily vs placebo

Row | Structure (SMILES) | men diagnosed with prostate cancer (prostate cancer [1]; after five years of follow-up) | men diagnosed with prostate cancer (prostate cancer [1]; after four years of follow-up) | risk of prostate cancer (prostate cancer [1]; assignment to calcium supplementation vs placebo) | incidence of prostate cancer, Kaplan-Meier curves versus placebo (prostate cancer [1]; by year three of follow-up) | adjusted odds ratio for prostate cancer (prostate cancer [1]; five-year follow-up (end of treatment plus 12 months)) | toxicity (prostate cancer [1]) | toxicity (prostate cancer [1]; listed as calcium carbonate) | adjusted odds ratio for prostate cancer (prostate cancer [1]; four-year treatment period, adjusted for age, clinical center, baseline dietary calcium) | adjusted ratio of the average numbers of adenomas (colorectal adenomas; [3]) | adjusted risk ratio of any adenoma recurrence (colorectal adenomas; [3]) | toxicity associated with supplementation (colorectal adenomas; calcium carbonate 3 gm daily) | actuarial overall 5-year survival rate (prostate cancer [2])
1 | O=C([O-])[O-].[Ca+2] [calcium, calcium carbonate] | 11 men | 8 men | statistically significant reduction | lower incidence | 0.43 | without toxicity | minimal | 0.54 | 0.76 | 0.85 | No toxicity | –
2 | CC(C)C[C@H](NC(=O)[C@@H](COC(C)(C)C)NC(=O)[C@H](Cc1ccc(O)cc1)NC(=O)[C@H](CO)NC(=O)[C@H](Cc1c[nH]c2ccccc12)NC(=O)[C@H](Cc1cnc[nH]1)NC(=O)[C@@H]1CCC(=O)N1)C(=O)N[C@@H](CCCNC(=N)N)C(=O)N1CCC[C@H]1C(=O)NNC(N)=O [goserelin] | – | – | – | – | – | – | – | – | – | – | – | 75%
